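Step 1: Grow cells in 96-well plates. Step 2: Expose to compound for 48 hours at 5 concentrations. Step 3: Interpolate endpoints linearly; if unreached, use highest concentration. GI50: concentration for 50% inhibition of growth. TGI is the concentration that stops growth completely.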

Test systems include ACHN renal; COLO 205 colon; HL-60(TB) leukemia; IGROV1 ovarian; MDA-MB-231 breast; OVCAR-4 ovarian; SF-539 CNS; SK-OV-3 ovarian; SR leukemia; T-47D breast.
Holding throughout (test): NCI anticancer screen, dose series, 48 h

`CN(C)c1ccc(/C=N/S(=O)(=O)c2ccc(-n3c(-c4ccccc4)nc4c(Br)cc(Br)cc4c3=O)cc2)cc1`: the GI50 in the assay on ACHN renal was 40.4 µM; with COLO 205 colon it was 44.9 µM; in the assay with HL-60(TB) leukemia it was 34.4 µM; with IGROV1 ovarian, 25.6 µM; in the assay on MDA-MB-231 breast, 44 µM; in the assay on OVCAR-4 ovarian, 30.3 µM. For the same molecule, the GI50 in the assay with SF-539 CNS is 44.4 µM; in the assay on SK-OV-3 ovarian, 47.2 µM; in the assay on SR leukemia, 1 µM; with T-47D breast, 24.5 µM. Further, the TGI in the assay with ACHN renal was above 100 µM; in the assay on COLO 205 colon it was above 100 µM; with HL-60(TB) leukemia, 84.2 µM; with IGROV1 ovarian it was above 100 µM; with MDA-MB-231 breast it was above 100 µM; in the assay on OVCAR-4 ovarian, 97.3 µM. Moreover, the TGI is above 91.8 µM in the assay with SF-539 CNS, above 100 µM with SK-OV-3 ovarian, 14.9 µM in the assay with SR leukemia and 88 µM in the assay with T-47D breast.
Consider `Nc1nc(N)c2nc3c(nc2n1)CCCCCCCCCC3`, for which the GI50 is 2.98 µM with ACHN renal; 6.83 µM with COLO 205 colon; 1.95 µM in the assay with HL-60(TB) leukemia; 0.421 µM in the assay on IGROV1 ovarian; 6.04 µM in the assay with MDA-MB-231 breast; above 100 µM in the assay on OVCAR-4 ovarian. Further, the GI50 is 5.69 µM in the assay on SF-539 CNS, 12 µM in the assay with SK-OV-3 ovarian, 5.03 µM in the assay with SR leukemia and above 100 µM in the assay with T-47D breast. Besides, the TGI with ACHN renal, in the assay with COLO 205 colon, in the assay with HL-60(TB) leukemia, in the assay with IGROV1 ovarian, in the assay with MDA-MB-231 breast and in the assay with OVCAR-4 ovarian was above 100 µM throughout. Moreover, the TGI with SF-539 CNS, with SK-OV-3 ovarian, with SR leukemia and in the assay with T-47D breast was above 100 µM in each case.
On to `Cc1ccc(C2NC(=O)c3ccccc3N2)c(C)c1` (stereo not given), for which the TGI was above 100 µM in the assay on ACHN renal; 14.2 µM with COLO 205 colon; 1.61 µM in the assay on HL-60(TB) leukemia; above 100 µM in the assay with IGROV1 ovarian; above 100 µM in the assay on MDA-MB-231 breast; above 59.7 µM in the assay on OVCAR-4 ovarian. For the same molecule, the TGI in the assay with SF-539 CNS is 5.15 µM; in the assay on SK-OV-3 ovarian, above 100 µM; with SR leukemia, above 71.8 µM; with T-47D breast, above 100 µM.
For `COC1CC(N)C(O)C(C)O1` (stereo not given), the TGI in the assay with ACHN renal, with COLO 205 colon, in the assay on HL-60(TB) leukemia, with IGROV1 ovarian, in the assay on MDA-MB-231 breast and in the assay with OVCAR-4 ovarian was above 100 µM in each case. The TGI in the assay on SF-539 CNS, with SK-OV-3 ovarian, in the assay on SR leukemia and in the assay with T-47D breast was above 100 µM in each case.
In the case of `CC1=Nc2c([nH]c(=S)[nH]c2=O)NC(c2c(Cl)cccc2Cl)C1` (stereo not given), the TGI in the assay with ACHN renal came out at 11 µM; in the assay on COLO 205 colon, 4.34 µM; in the assay with HL-60(TB) leukemia, 2.54 µM; in the assay with IGROV1 ovarian, 5.45 µM; in the assay on MDA-MB-231 breast, 1.87 µM; in the assay with OVCAR-4 ovarian, 9.09 µM. The TGI stood at 4.2 µM in the assay with SF-539 CNS, 18.1 µM in the assay on SK-OV-3 ovarian, 1.68 µM in the assay with SR leukemia and 3.21 µM in the assay with T-47D breast.
Consider `CC1OC(CC(=O)O)CC2=C1C(=O)c1c(O)cccc1C2=O` (stereo not given), for which the TGI came to 0.658 µM with ACHN renal; 0.169 µM in the assay on COLO 205 colon; 0.0582 µM in the assay with HL-60(TB) leukemia; 0.721 µM with IGROV1 ovarian; 0.707 µM in the assay with MDA-MB-231 breast; 0.742 µM in the assay with OVCAR-4 ovarian. Also, the TGI came out at 2.43 µM in the assay on SF-539 CNS, 12.7 µM in the assay with SK-OV-3 ovarian, 0.159 µM in the assay on SR leukemia and 4.4 µM in the assay with T-47D breast.
Take `CC1(C)Cc2c(Br)c(Br)c(Br)c(OCC(O)CN3CCN(c4ccccn4)CC3)c2O1` (stereo not given): the GI50 was 12.5 µM in the assay with ACHN renal; 15 µM in the assay with COLO 205 colon; 2.8 µM in the assay on HL-60(TB) leukemia; 10.7 µM with IGROV1 ovarian; 12.3 µM with MDA-MB-231 breast; 12.1 µM in the assay on OVCAR-4 ovarian. Moreover, the GI50 with SF-539 CNS is 13.6 µM; with SK-OV-3 ovarian it was 33.2 µM; with SR leukemia it was 4.38 µM; in the assay with T-47D breast, 18.3 µM. The TGI in the assay on ACHN renal was found to be 91.4 µM; with COLO 205 colon it was 34.4 µM; in the assay on HL-60(TB) leukemia, 11.1 µM; in the assay with IGROV1 ovarian it was 26 µM; with MDA-MB-231 breast, 28.2 µM; with OVCAR-4 ovarian, 26.7 µM. Further, the TGI is 29.2 µM in the assay with SF-539 CNS, above 100 µM in the assay on SK-OV-3 ovarian, 24.7 µM with SR leukemia and above 100 µM in the assay with T-47D breast.
For the molecule `O=[N+]([O-])c1cc2no[n+]([O-])c2cc1N1CCCCC1`, the TGI was 7.21 µM in the assay with ACHN renal; 30.4 µM in the assay on COLO 205 colon; 5.29 µM in the assay on HL-60(TB) leukemia; 8.83 µM with IGROV1 ovarian; 44.3 µM in the assay with MDA-MB-231 breast; 8.37 µM with OVCAR-4 ovarian. Besides, the TGI in the assay on SF-539 CNS is above 20.1 µM; with SK-OV-3 ovarian, 27.4 µM; in the assay on SR leukemia, 12.2 µM; in the assay on T-47D breast it was 5.53 µM.
As to `CCSC[C@@H]1C[C@](O)(c2ccc(F)cc2)[C@@H](c2ccc(F)cc2)O1`, the GI50 in the assay with ACHN renal is 18.4 µM; in the assay on COLO 205 colon it was 16.5 µM; with HL-60(TB) leukemia it was 7 µM; in the assay on IGROV1 ovarian, 14.5 µM; with MDA-MB-231 breast it was 15.3 µM; in the assay on OVCAR-4 ovarian, 16.3 µM. The GI50 in the assay with SF-539 CNS was 17 µM; in the assay with SK-OV-3 ovarian it was 18.3 µM; in the assay on SR leukemia it was 12.9 µM; in the assay on T-47D breast, 15 µM. Also, the TGI with ACHN renal turned out to be 32.6 µM; in the assay with COLO 205 colon it was 31.6 µM; in the assay with HL-60(TB) leukemia, 21.2 µM; in the assay with IGROV1 ovarian, 32.8 µM; in the assay on MDA-MB-231 breast it was 30.1 µM; with OVCAR-4 ovarian it was 32.5 µM. In addition, the TGI in the assay with SF-539 CNS was found to be 31.1 µM; in the assay with SK-OV-3 ovarian it was 38 µM; with SR leukemia, 30 µM; in the assay with T-47D breast, 35.8 µM.
On to `CN(C)c1cccc(F)c1C(=O)NC(=O)Nc1ccc(Cl)cc1`, for which the TGI was above 100 µM with ACHN renal; above 100 µM with COLO 205 colon; 18.1 µM in the assay on HL-60(TB) leukemia; above 100 µM with IGROV1 ovarian; above 72.1 µM with MDA-MB-231 breast; above 100 µM in the assay on OVCAR-4 ovarian. The TGI was above 100 µM in the assay on SF-539 CNS, above 29.3 µM in the assay on SK-OV-3 ovarian, above 100 µM in the assay on SR leukemia and above 100 µM in the assay with T-47D breast.
On to `COc1cc(Cl)cc(-c2nn(-c3cccc(NC(=O)Nc4ccc(Cl)c(Cl)c4)c3)cc2-c2ccncc2)c1`, for which the GI50 in the assay with ACHN renal is 3.23 µM; in the assay on COLO 205 colon, 1.71 µM; with HL-60(TB) leukemia it was 2.19 µM; in the assay on IGROV1 ovarian it was 4.35 µM; in the assay with MDA-MB-231 breast it was 1.87 µM; in the assay on OVCAR-4 ovarian, 2.85 µM. For the same molecule, the GI50 with SF-539 CNS is 2.6 µM; with SK-OV-3 ovarian, 3.6 µM; in the assay with SR leukemia, 1.54 µM; with T-47D breast it was 2.78 µM. Besides, the TGI is above 100 µM with ACHN renal; 3.31 µM in the assay on COLO 205 colon; 5.68 µM in the assay on HL-60(TB) leukemia; above 100 µM with IGROV1 ovarian; 4.52 µM in the assay with MDA-MB-231 breast; 53.8 µM with OVCAR-4 ovarian. Also, the TGI in the assay with SF-539 CNS was found to be 13.2 µM; with SK-OV-3 ovarian, 87 µM; with SR leukemia, 5.8 µM; with T-47D breast, 18.9 µM.
For `COC(=O)C(C(=O)OC)C(Br)C(Br)C(Br)c1ccccc1` (stereo not given), the GI50 with ACHN renal was 2.8 µM; with COLO 205 colon, 2.14 µM; in the assay on HL-60(TB) leukemia, 2.59 µM; with IGROV1 ovarian it was 4.92 µM; in the assay with MDA-MB-231 breast it was 13.2 µM; in the assay with OVCAR-4 ovarian, 4.33 µM. The GI50 is 18.2 µM with SF-539 CNS, 23.6 µM with SK-OV-3 ovarian, 2.47 µM in the assay on SR leukemia and 2.03 µM in the assay with T-47D breast. Besides, the TGI with ACHN renal was determined as 7.16 µM; in the assay on COLO 205 colon, 4.62 µM; with HL-60(TB) leukemia it was 6.47 µM; with IGROV1 ovarian, 27 µM; in the assay with MDA-MB-231 breast, 26.8 µM; in the assay on OVCAR-4 ovarian, 17.8 µM. For the same molecule, the TGI in the assay on SF-539 CNS stood at 33.7 µM; in the assay on SK-OV-3 ovarian, 72.3 µM; with SR leukemia it was 6.39 µM; in the assay on T-47D breast, 4.92 µM.
Consider `NC1(Cc2ccc(Cl)cc2)CCN(c2ncnc3[nH]ccc23)CC1`, for which the GI50 is 5.58 µM in the assay with ACHN renal; 3.72 µM in the assay with COLO 205 colon; 3.39 µM with HL-60(TB) leukemia; 1.01 µM with IGROV1 ovarian; 6.9 µM in the assay with MDA-MB-231 breast; 17.6 µM in the assay with OVCAR-4 ovarian. Moreover, the GI50 with SF-539 CNS is 2.21 µM; in the assay with SK-OV-3 ovarian, 2.35 µM; in the assay with SR leukemia it was 4.2 µM; in the assay with T-47D breast it was 1.59 µM. The TGI with ACHN renal is 32.1 µM; with COLO 205 colon, 15.1 µM; in the assay on HL-60(TB) leukemia, 17.6 µM; in the assay with IGROV1 ovarian, 7.8 µM; in the assay with MDA-MB-231 breast it was 26.9 µM; in the assay with OVCAR-4 ovarian, 60.5 µM. Also, the TGI came out at 12.6 µM with SF-539 CNS, 15.8 µM with SK-OV-3 ovarian, 31.4 µM in the assay with SR leukemia and 14.7 µM in the assay on T-47D breast.

The values are drawn from PubChem BioAssay (NCI).
